# Test results taken from US6310037A, “Method of controlling protozoan infections using syringomycin-family lipodepsipeptides” (Utah State University, priority 1999, dated 2001).
# Where a SMILES comes first, the peptide text is derived from it. Bridges are numbered along the chain shown (N, C = ends). [ ]: non-standard residue; d: D form. The star is where a group is joined. Asp(3S-OH) = N[C@H](C(=O)O)[C@H](O)C(=O)O; Thr(4-Cl) = N[C@H](C(=O)O)[C@H](O)CCl; X1 = CCCCCCCCC[C@@H](O)CC(=O)*; dDab = NCC[C@@H](N)C(=O)O; Dab = NCC[C@H](N)C(=O)O; Dhb = C/C=C(\N)C(=O)O
# Tests used:
# MDBK cells = assay: Cytotoxicity of Syr-E to MDBK host cells (LDH assay, visual observation); assay type: cell-based, bovine; details: for Syr-E related cytotoxicity (LDH assay) compared to infected and untreated control: Syr-E 5, 10, 15, 20 μg/ml tested
# Source text: Madin-Darby bovine kidney (MDBK) epithelial cells were also used to culture C. parvum in this study. Dulbecco's modified Eagle medium (DMEM) with 10% FBS was used for routine passage of MDBK cells purchased from American Type Collection for Culture (Rockville, Md.). Mycoplasma contamination was periodically checked with Hoechst staining (Uphoff et al., 1992). At confluence, MDBK cells were lifted from culture flasks with trypsin, enumerated, and redistributed to assay plates. Ninety-six well cell culture plates were employed to assess cytotoxicity of testing agents or the parasite or both to host cells using neutral red staining or lactic dehydrogenase (LDH) assay.
# A volume of 10 μl/well culture supernatant was pipetted into a 96-well plate and mixed with 50 μl/well substrate solution containing 0.75 mM sodium pyruvate and 1 mg beta-NADH/ml. Following incubation at 37° C. for 30 min, the plate was added with 50 μl of 2,4-dinitrophenylhydrazine/well and kept at 25° C. for 20 min., and then the plate was added with a volume of 200 μl/well of 0.6 N NaOH, mixed well, and retained at 25° C. for 10 min. prior to being quantified by the Microplate Autoreader with a wavelength set at 515 nm.
# A single concentration of Syr-E at 15 μg/ml was used to treat MDBK cells at pH 7 with C. parvum infection. Group 1 served as an infection control, receiving no Syr-E treatment. Syr-E was administered 1 day prior to parasite inoculation to groups 2, 4, and 5, at the inoculation day to groups 3-5, and 1 day post inoculation to groups 3 and 5, respectively. Following specified administration day(s), supernatants of corresponding wells containing Syr-E were removed and replaced with fresh DMEM base. Cytotoxicity was monitored using lactic dehydrogenase (LDH) assay on day 1 post inoculation. Three coverslips from each group were collected on days 2 and 5 post inoculation, were fixed, and were stained with the specific IFA, as described with reference to Example II.
# Group 1 received neither Syr-E treatment nor inoculation and its cytotoxicity was set at 0%, as illustrated on day 2. Group 2 received only C. parvum inoculation serving as an infection control. Groups 3-6 received both the inoculation and Syr-E treatments at 5, 10, 15, and 20 μg/ml, respectively. Data in FIG. 4 are presented as the means +/- standard errors of the mean. […] Cytotoxicity of Syr-E to host cells was measured using LDH assay on both days 1 and 2 post inoculation. More (P<0.01) cytotoxicity was shown on day 1 post inoculation than day 2 post inoculation. […] Overall, more cytotoxicity was observed as Syr-E concentrations increased.
# P. falciparum D6 = assay type: cell-based; details: D6 isolate, pH 7.0, 66 hour incubation
# Source text: (§1) P. falciparum used in this study were two well characterized clones, W2 and D6, as described in Oduola, A. M. et al., Plasmodium falciparum: cloning by single-erythrocyte micromanipulation and heterogeneity in vitro; Exp. Parasitol. 66, 86-95 (1988), the contents of which are incorporated herein by this reference. W2 is a clone of the Indochina I isolate and is resistant to chloroquine and pyrimethamine, but susceptible to mefloquine. D6 is a clone from the Sierra I/UNC isolate and is susceptible to chloroquine and pyrimethamine, but has reduced susceptibilities to mefloquine and halofantrine.
# (§2) The susceptibility of P. falciparum to Syr-E was studied using a modified antimalarial drug susceptibility screen following the procedures published by Desjardins et al., Quantitative assessment of antimalarial activity in vitro by semiautomated microdilution technique (1979), with modifications developed by Milhous et al., In vitro strategies for circumventing antimalarial drug resistance, Prog. […]
# (§3) Syr-E was dissolved directly in dimethylsulfoxide (DMSO) and diluted 400 fold with complete culture media and started at a highest concentration of 50,000 ng/ml. […] The filter mats were then counted in a scintillation counter and the data downloaded with custom, automated analysis software (developed at the Walter Reed Army Institute of Research). […]
# P. falciparum W2 = assay type: cell-based; details: W2 isolate, pH 7.0, 66 hour incubation
# Source text: as §1, §2, §3
structure (smiles),measurement,setting,value
"C/C=C1\NC(=O)[C@H](Cc2ccccc2)NC(=O)[C@H](CCCNC(=N)N)NC(=O)[C@H](CCN)NC(=O)[C@@H](CCN)NC(=O)[C@@H](CO)NC(=O)[C@@H](NC(=O)C[C@H](O)CCCCCCCCC)COC(=O)[C@H]([C@H](O)CCl)NC(=O)[C@H]([C@H](O)C(=O)O)NC1=O [Syr-E, Syringomycin-E] (X1-S[dS][dDab][Dab]RF[Dhb][Asp(3S-OH)][Thr(4-Cl)]; ester 1-C)",visual cell damage,"MDBK cells; Syr-E 15 μg/ml, MDBK cells, pH 7, Table 1 schedule",no visual cell damage observed
same,"cytotoxicity by LDH assay, treatment schedule groups vs untreated control","MDBK cells; Syr-E 15 μg/ml, MDBK cells, pH 7, day 1 post inoculation, Table 1 schedule",failed to show significant differences between groups except group 3
same,visible cell damage on cell monolayers,"MDBK cells; Syr-E 5-20 μg/ml, MDBK cells, pH 7.0",No obvious cell peeling or plaques formed on cell monolayers
same,Syr-E related cytotoxicity (LDH assay) compared to infected and untreated control,"MDBK cells; pH 7.0, day 1 post inoculation",cytotoxicity appeared at 20 μg/ml on day 1 post inoculation
same,Syr-E related cytotoxicity (LDH assay) compared to infected and untreated control,"MDBK cells; pH 7.0, day 2 post inoculation",15 and 20 μg/ml on day 2 post inoculation
same,IC50,P. falciparum D6,3.03 µg/mL
same,IC50,P. falciparum W2,3.23 µg/mL
